ChEMBL document CHEMBL4346757, “Synthesis and biological evaluation of 7-methoxy-1-(3,4,5-trimethoxyphenyl)-4,5-dihydro-2H-benzo[e]indazoles as new colchicine site inhibitors” (Bioorg Med Chem Lett, 2019)

What was measured:
Assay type in all cases: functional
EKVX = experiment: Growth inhibition of human EKVX cells assessed as cell growth at 0.01 uM after 48 hrs by SRB assay relative to control; conditions: read-out: Activity
NCI-H522 = experiment: Growth inhibition of human NCI-H522 cells assessed as cell growth at 0.01 uM after 48 hrs by SRB assay relative to control; conditions: NCI-H522, 48 h, read-out: Activity
HCT-116 [1] = experiment: Growth inhibition of human HCT116 cells assessed as cell growth at 0.01 uM after 48 hrs by SRB assay relative to control; conditions: HCT-116, 48 h, read-out: Activity
HOP-92 = experiment: Growth inhibition of human HOP92 cells assessed as cell growth at 0.1 uM after 48 hrs by SRB assay relative to control; conditions: HOP-92, 48 h, read-out: Activity
NCI-H460 = experiment: Growth inhibition of human NCI-H460 cells assessed as cell growth at 0.1 uM after 48 hrs by SRB assay relative to control; conditions: NCI-H460, 48 h, read-out: Activity
KM12 = experiment: Growth inhibition of human KM12 cells assessed as cell growth at 0.1 uM after 48 hrs by SRB assay relative to control; conditions: KM12, 48 h, read-out: Activity
SF-539 = experiment: Growth inhibition of human SF539 cells assessed as cell growth at 0.1 uM after 48 hrs by SRB assay relative to control; conditions: SF-539, 48 h, read-out: Activity
SK-MEL-28 = experiment: Growth inhibition of human SK-MEL-28 cells assessed as cell growth at 0.1 uM after 48 hrs by SRB assay relative to control; conditions: SK-MEL-28, 48 h, read-out: Activity
OVCAR-4 = experiment: Growth inhibition of human OVCAR4 cells assessed as cell growth at 0.1 uM after 48 hrs by SRB assay relative to control; conditions: OVCAR-4, 48 h, read-out: Activity
MDA-MB-231 = experiment: Growth inhibition of human MDA-MB-231/ATCC cells assessed as cell growth at 0.1 uM after 48 hrs by SRB assay relative to control; conditions: MDA-MB-231, 48 h, read-out: Activity
CCRF-CEM = experiment: Growth inhibition of human CCRF-CEM cells assessed as cell growth at 1 uM after 48 hrs by SRB assay relative to control; conditions: read-out: Activity
NCI-H322M = experiment: Growth inhibition of human NCI-H322M cells assessed as cell growth at 1 uM after 48 hrs by SRB assay relative to control; conditions: read-out: Activity
UACC-62 [2] = experiment: Growth inhibition of human UACC62 cells assessed as cell growth at 1 uM after 48 hrs by SRB assay relative to control; conditions: UACC-62, 48 h, read-out: Activity
IGROV-1 [3] = experiment: Growth inhibition of human IGROV1 cells assessed as cell growth at 1 uM after 48 hrs by SRB assay relative to control; conditions: IGROV-1, 48 h, read-out: Activity
MDA-MB-468 [4] = experiment: Growth inhibition of human MDA-MB-468 cells assessed as cell growth at 1 uM after 48 hrs by SRB assay relative to control; conditions: MDA-MB-468, 48 h, read-out: Activity
SF-295 = experiment: Growth inhibition of human SF295 cells assessed as cell growth at 10 uM after 48 hrs by SRB assay relative to control; conditions: SF-295, 48 h, read-out: Activity
LOX IMVI = experiment: Growth inhibition of human LOXIMVI cells assessed as cell growth at 10 uM after 48 hrs by SRB assay relative to control; conditions: read-out: Activity
IGROV-1 [5] = experiment: Growth inhibition of human IGROV1 cells assessed as cell growth at 10 uM after 48 hrs by SRB assay relative to control; conditions: IGROV-1, 48 h, read-out: Activity
786-0 = experiment: Growth inhibition of human 786-0 cells assessed as cell growth at 10 uM after 48 hrs by SRB assay relative to control; conditions: 786-0, 48 h, read-out: Activity
MDA-MB-468 [6] = experiment: Growth inhibition of human MDA-MB-468 cells assessed as cell growth at 10 uM after 48 hrs by SRB assay relative to control; conditions: MDA-MB-468, 48 h, read-out: Activity
HCC 2998 = experiment: Growth inhibition of human HCC2998 cells assessed as cell growth at 100 uM after 48 hrs by SRB assay relative to control; conditions: HCC 2998, 48 h, read-out: Activity
MDA-MB-435 = experiment: Growth inhibition of human MDA-MB-435 cells assessed as cell growth at 100 uM after 48 hrs by SRB assay relative to control; conditions: MDA-MB-435, 48 h, read-out: Activity
UACC-62 [7] = experiment: Growth inhibition of human UACC62 cells assessed as cell growth at 100 uM after 48 hrs by SRB assay relative to control; conditions: UACC-62, 48 h, read-out: Activity
Hs-578T = experiment: Growth inhibition of human Hs 578T cells assessed as cell growth at 100 uM after 48 hrs by SRB assay relative to control; conditions: read-out: Activity
HOP-62 = experiment: Cytotoxicity against human HOP62 cells assessed as growth inhibition after 48 hrs by SRB assay; conditions: HOP-62, 48 h
HCT-116 [8] = experiment: Cytotoxicity against human HCT116 cells assessed as growth inhibition after 48 hrs by SRB assay; conditions: HCT-116, 48 h
SW-620 = experiment: Cytotoxicity against human SW620 cells assessed as growth inhibition after 48 hrs by SRB assay; conditions: SW-620, 48 h
A498 = experiment: Cytotoxicity against human A498 cells assessed as growth inhibition after 48 hrs by SRB assay; conditions: A498, 48 h
ACHN = experiment: Cytotoxicity against human ACHN cells assessed as growth inhibition after 48 hrs by SRB assay
PC-3 = experiment: Cytotoxicity against human PC3 cells assessed as growth inhibition after 48 hrs by SRB assay; conditions: PC-3, 48 h
[9] = read-out: LC50 (the source's name)
[10] = read-out: pLC50 (the source's name) (converted)

`COc1ccc2c(c1)CCc1n[nH]c(-c3cc(OC)c(OC)c(OC)c3)c1-2` showed a growth at 0.01 µM (EKVX) of 48%, a growth at 0.01 µM (NCI-H522) of -16% and a growth at 0.01 µM (HCT-116 [1]) of 7%. The growth at 0.1 µM (HOP-92) was 30%, the growth at 0.1 µM (NCI-H460) was 2% and the growth at 0.1 µM (KM12) was 10%. The growth at 0.1 µM (SF-539) was -6%, the growth at 0.1 µM (SK-MEL-28) was 60% and the growth at 0.1 µM (OVCAR-4) was 44%. For the same compound, the growth at 0.1 µM (MDA-MB-231) was 29%, the growth at 1 µM (CCRF-CEM) was 42% and the growth at 1 µM (NCI-H322M) was 42%. It also gave a growth at 1 µM (UACC-62 [2]) of 36%, a growth at 1 µM (IGROV-1 [3]) of 26% and a growth at 1 µM (MDA-MB-468 [4]) of -1%. For the same compound, the growth at 10 µM (SF-295) was -5%, the growth at 10 µM (LOX IMVI) was 7% and the growth at 10 µM (IGROV-1 [5]) was 20%. For the same compound, the growth at 10 µM (786-0) was 3%, the growth at 10 µM (MDA-MB-468 [6]) was -5% and the growth at 100 µM (HCC 2998) was -80%. For the same compound, the growth at 100 µM (MDA-MB-435) was -64%, the growth at 100 µM (UACC-62 [7]) was -76% and the growth at 100 µM (Hs-578T) was -18%. The GI50 (HOP-62; read-out: GI50) was less than 0.01 µM, the CC50 (HOP-62; [9]) was 46.7 µM and the TGI (HOP-62; read-out: TGI) was 10.8 µM. It also gave a GI50 (HOP-62; read-out: pGI50 (converted)) of less than 0.01 µM, a CC50 (HOP-62; [10]) of 46.8 µM and a TGI (HOP-62; read-out: pTGI (converted)) of 10.7 µM. It also gave a GI50 (HCT-116 [8]; read-out: GI50) of less than 0.01 µM, a CC50 (HCT-116 [8]; [9]) of 48.9 µM and a TGI (HCT-116 [8]; read-out: TGI) of 1.16 µM. The GI50 (HCT-116 [8]; read-out: pGI50 (converted)) was less than 0.01 µM, the CC50 (HCT-116 [8]; [10]) was 49 µM and the TGI (HCT-116 [8]; read-out: pTGI (converted)) was 1.15 µM. The GI50 (SW-620; read-out: GI50) was less than 0.01 µM, the CC50 (SW-620; [9]) was 52.2 µM and the TGI (SW-620; read-out: TGI) was 14.5 µM. For the same compound, the GI50 (SW-620; read-out: pGI50 (converted)) was less than 0.01 µM, the CC50 (SW-620; [10]) was 52.5 µM and the TGI (SW-620; read-out: pTGI (converted)) was 14.5 µM. The GI50 (A498; read-out: GI50) was less than 0.01 µM, the CC50 (A498; [9]) was 55.9 µM and the TGI (A498; read-out: TGI) was less than 0.01 µM. It also gave a GI50 (A498; read-out: pGI50 (converted)) of less than 0.01 µM, a CC50 (A498; [10]) of 56.2 µM and a TGI (A498; read-out: pTGI) of less than 0.01 µM. The GI50 (ACHN; read-out: GI50) was less than 0.01 µM, the LC50 (ACHN; read-out: LC50) was greater than 100 µM and the TGI (ACHN; read-out: TGI) was 21.7 µM. The GI50 (ACHN; read-out: pGI50 (converted)) was less than 0.01 µM, the LC50 (ACHN; read-out: pLC50 (converted)) was greater than 100 µM and the TGI (ACHN; read-out: pTGI (converted)) was 21.9 µM. It also gave a GI50 (PC-3; read-out: GI50) of less than 0.01 µM, a CC50 (PC-3; [9]) greater than 100 µM and a TGI (PC-3; read-out: TGI) of 17.8 µM. It also gave a GI50 (PC-3; read-out: pGI50 (converted)) of less than 0.01 µM, a CC50 (PC-3; [10]) greater than 100 µM and a TGI (PC-3; read-out: pTGI (converted)) of 17.8 µM.
